Measurements reported in patent publication US20210353633A1, “CYCLODEXTRIN-BASED FORMULATION OF A BCL-2 INHIBITOR” (LES LABORATOIRES SERVIER, priority 2018, published 2021).

Legend:
[1] = pH, appearance and precipitation pH of solutions diluted in 250 mL of glucose 5% solution (G5); format: physicochemical; details: for pH: hydrogen sulfate salt in Cavitron W7H5; for Precipitation pH (by light obscuration technique) / Precipitation pH (by visual observation): pH increased with NaOH 0.01N
Procedure: The Compound A used is in the form of a hydrogen sulfate salt. Invisible particulate contamination of the solutions was also controlled by light obscuration technique.
A mother solution containing a dose of 200 mg/mL of Cavitron™ W7H5 and 20 mg/mL of Compound A (expressed for the free base) is prepared by dissolving a lyophilisate as described in Example 5 in the necessary amount of water. The solution so obtained is then diluted by means of glucose 5% solution (G5).
The pH of the solutions obtained is measured and the appearance of the solutions is observed. The pH is increased using NaOH 0.01N solution until a precipitation is observed.

RS4;11 = test: Efficacy in RS4;11 xenograft model in mice; format: in vivo; details: day 21, 20% HP-β-cyclodextrin solution
Procedure: The in vivo therapeutic effect of Compound A formulated in a solution comprising 20% of a HP-β-cyclodextrin w/v, was determined in the RS4;11 model after intravenous administration.
RS4;11 cell line, obtained from ATCC, were subcutaneously injected into female SCID mice, provided by Charles River. When tumors reached the appropriate tumor volume, mice were randomized using Easy stat software. Compound A (15 mg/kg or 40 mg/kg expressed as free base) was injected i.v. once a week over two weeks.
In a 100 mL flask, introduce 20 g of Cavitron™ W7HP5 and add around 75 mL of a solution water/0.9% NaCl (70/30, v/v). Stir for 15 minutes at room temperature. Then, make up the solution to a volume of 100 mL by adding the previous solution water/0.9% NaCl, while maintaining magnetic stirring. Weigh the necessary amount of ‘Compound A, H2SO4’ and dissolve it with the previous 20% w/v Cavitron™ W7H5 solution. Heat the whole at 60° C. under vigorous magnetic stirring until solubilisation of the components of the mixture is complete. Measure the pH of the solution obtained. […]
Mice were monitored for tumor development and body weight three times a week and tumor size was measured using electronic calipers. […] The last day with all control animals still present in the study, tumor growth inhibition was calculated using the formula: […]
wherein ‘DTV (Delta Tumor Volume) at Dx’ is calculated as follows: […]

[2] = pH of precipitation by addition of NaOH to a HP-β-cyclodextrin solution (Example 9); format: physicochemical; details: hydrogen sulfate salt in Cavitron W7H5 solution; 0.5M NaOH added; visual; duplicate
Procedure: The objective of this study is to define the pH of precipitation of Compound A (hydrogen sulfate salt) from HP-β-cyclodextrin solution to better understand the risk of precipitation and select the pH of the drug product.
Weigh 10 g of Cavitron™ W7H5 in a 50 mL flask. Add 26 g of water and then solubilize the Cavitron™ W7H5 under magnetic agitation. Carefully add 1.14 g of Compound A under magnetic agitation and then add 6.5 mL of water. Solubilize Compound A using magnetic agitation at 60° C. Once totally solubilized, cool down the solution at room temperature then rinse the upper edges of the flask with 0.5 mL of water. The total amount of water added is […].
Slowly add 0.5M NaOH solution under continuous agitation (add 100 μL at each addition step) up to a precipitation is visually observed. The experiment was performed in duplicate. The precipitated solid is separated and dried to be analyzed by RMN, XRPD, XRF, and HPLC.

[3] = 12 mg of Compound A in 250 mL of G5
[4] = 25 mg of Compound A in 250 mL of G5
[5] = 50 mg of Compound A in 250 mL of G5
[6] = 100 mg of Compound A in 250 mL of G5
[7] = 250 mg of Compound A in 250 mL of G5
[8] = 500 mg of Compound A in 250 mL of G5
[9] = 1000 mg of Compound A in 250 mL of G5

Cc1c(N(C(=O)c2cc(-c3cc(Cl)ccc3C(=O)N3Cc4ccccc4C[C@H]3CN3CCOCC3)n(C)c2C)c2ccc(O)cc2)cc(C#N)n1C [Compound A, 5-(5-chloro-2-{[(3S)-3-(morpholin-4-ylmethyl)-3,4-dihydroisoquinolin-2(1H)-yl]carbonyl}phenyl)-N-(5-cyano-1,2-dimethyl-1H-pyrrol-3-yl)-N-(4-hydroxyphenyl)-1,2-dimethyl-1H-pyrrole-3-carboxamide]
Appearance of the solution after 15 min [1, 3]: clear
pH [1, 3]: 3.7-4.310
Precipitation pH (by light obscuration technique) [1, 3]: 5.4
Precipitation pH (by visual observation) [1, 3]: 8.609
Appearance of the solution after 15 min [1, 4]: clear
pH [1, 4]: 3.9-4.240
Precipitation pH (by light obscuration technique) [1, 4]: 4.8
Precipitation pH (by visual observation) [1, 4]: 5.220
Appearance of the solution after 15 min [1, 5]: clear
pH [1, 5]: 3.8-4.158
Precipitation pH (by light obscuration technique) [1, 5]: 4.5
Precipitation pH (by visual observation) [1, 5]: 5.143
Appearance of the solution after 15 min [1, 6]: clear
pH [1, 6]: 3.8-4.033
Precipitation pH (by light obscuration technique) [1, 6]: 4.3
Precipitation pH (by visual observation) [1, 6]: 4.872
Appearance of the solution after 15 min [1, 7]: clear
pH [1, 7]: 3.7-3.809
Precipitation pH (by light obscuration technique) [1, 7]: 4.1
Precipitation pH (by visual observation) [1, 7]: 4.388
Appearance of the solution after 15 min [1, 8]: clear
pH [1, 8]: 3.5-3.613
Precipitation pH (by light obscuration technique) [1, 8]: 4.0
Precipitation pH (by visual observation) [1, 8]: 4.378
Appearance of the solution after 15 min [1, 9]: clear
pH [1, 9]: 3.3-3.401
Precipitation pH (by light obscuration technique) [1, 9]: 4.0
Precipitation pH (by visual observation) [1, 9]: 4.254
precipitation when diluted in G5 solution ([1]; concentrations between 12 and 1000 mg/250 mL of G5 solution, solubilised by Cavitron W7H5 solution): do not precipitate
tumor growth inhibition (RS4;11; 15 mg/kg i.v. once a week for 2 weeks): 57.83%
tumor growth inhibition (RS4;11; 40 mg/kg i.v. once a week for 2 weeks): 75.52%
pH at which drug precipitation was observed [2]: 4.27
